In US9844529B2, “Combination therapy for ovarian cancer” (Eli Lilly And Company, priority 2011, dated 2017):

What was measured:
SK-OV-3x.luc xenografts = assay: SK-OV-3x.luc ovarian cancer xenograft tumor growth inhibition in mice; type: in vivo, mouse
Protocol: (§1) Human tumor mouse xenografts are generated from early passages of the following ovarian cancer cell lines: A-2780 (National Cancer Institute), SK-OV-3x.luc (SK-OV-3 cell line modified to express luciferase (#1, medium expressing), Indiana University). A-2780 ovarian cancer cells are grown in RPMI 1640 with L-glutamine, 25 mM HEPES (Invitrogen 22400-089) supplemented with 1 mM pyruvate and 10% Certified Fetal Bovine Serum (Gibco 16000, FBS). SK-OV-3x.luc cells (ovarian cancer cells) are grown in McCoy's 5A Medium with L-glutamine (Invitrogen 16600-082) supplemented with non-essential amino acids, 1 mM pyruvate and 10% FBS. Harlan athymic nude mice (6-7 weeks old) are housed with ad libitum feed and water, and are acclimated for one week prior to subcutaneous xenograft implantation in the right rear flank with a defined number of cells. A-2780 or SK-OV-3x.luc implants consist of 0.1 mL of cells (2 or 5×10^6 cells, respectively) in serum-free media with 0.1 mL MATRIGEL® (BD Biosciences) for a final volume of 0.2 mL. Tumors are allowed to develop to a volume of 120-150 mm^3 and are then randomized into treatment groups to attain a consistent average tumor size across all groups. Each treatment group of the SK-OV-3x.luc study is 12 animals; each group of the A-2780 study is 20 animals. Compound A is prepared weekly in hydroxyethylcellulose (HEC) 1%/TWEEN® 80 0.25%/Antifoam 0.05% (HEC/TWEEN®) and stored at 4° C. […] Compound A, 30 mg/kg, oral, TID×21/gemcitabine+cisplatin, 100+4 mg/kg, IP, QW×3* • *SK-OV-3x.luc study only Tumor volume and body weight are recorded and analyzed twice weekly using a data capture and analysis tool. Tumor volume (mm^3) is estimated by using the formula: ν=l×w^2×0.536 where l=larger of measured diameter and w=smaller of perpendicular diameter. Antitumor activity is calculated as a percent reduction of treated (T) tumor volume relative to untreated control (C) tumor volume [1−(T/C)]×100. […]

A-2780 xenografts = assay: A-2780 ovarian cancer xenograft tumor growth inhibition in mice; type: in vivo, mouse; details: Compound A 10 mg/kg oral TID×21 alone
Protocol: as §1, with “cells.” for “cells. A-2780 or SK-OV-3x.luc implants consist of 0.1 mL of cells (2 or 5×10^6 cells, respectively) in serum-free media with 0.1 mL MATRIGEL® (BD Biosciences) for a final volume of 0.2 mL. Tumors are allowed to develop to a volume of 120-150 mm^3 and are then randomized into treatment groups to attain a consistent average tumor size across all groups. Each treatment group of the SK-OV-3x.luc study is 12 animals; each group of the A-2780 study is 20 animals. Compound A is prepared weekly in hydroxyethylcellulose (HEC) 1%/TWEEN® 80 0.25%/Antifoam 0.05% (HEC/TWEEN®) and stored at 4° C.”

CC(C)(C)Cn1c(N)nc2ccc(-c3nc(C(C)(C)C)[nH]c3-c3ccc(F)cc3)nc21 [Compound A, 5-[2-tert-Butyl-5-(4-fluorophenyl)-1H-imidazol-4-yl]-3-(2,2-dimethylpropyl)imidazo[4,5-b]pyridin-2-amine dimethanesulfonate]
Max % wt. loss (SK-OV-3x.luc xenografts; Compound A 30 mg/kg oral TID×21 alone, SK-OV-3x.luc): 1.4%
final tumor volume (SK-OV-3x.luc xenografts; Compound A 30 mg/kg oral TID×21 alone, SK-OV-3x.luc, 3 weeks): 522 ± 54 mm^3
final average tumor volume compared with vehicle control (SK-OV-3x.luc xenografts; Compound A alone, 3 weeks, SK-OV-3x.luc xenografts): not significantly different from vehicle control
Max % wt. loss (A-2780 xenografts): 3.0%
final tumor volume (A-2780 xenografts; 3 weeks): 1828 ± 208 mm^3
